Source: patent US12187713B2, “Immunomodulators, compositions and methods thereof” (Betta Pharmaceuticals Co., Ltd, priority 2019, dated 2025)

Each molecule was assayed against PD-1/PD-L1 (Homo sapiens (Human), UniProt Q9NZQ7) (assay: PD-1/PD-L1 Binding Assay (Alphascreen)). Conditions: numeric values.
Protocol: PD-1/PD-L1 Binding Assay (Alphascreen)
The assays were conducted in a standard black 384-well polystyrene plate with a final volume of 20 μL. Inhibitors were first serially diluted in DMSO and then added to the plate wells before the addition of other reaction components. The final concentration of DMSO in the assay was […]. Add 100 nL/well of compound to the 384 reaction plate (6008280, PerkinElmer) with Echo and centrifuge at 1000 rpm for 1 minute. Add 5 μL/well 4×PD-L1 solutions to the 384 reaction plate, centrifuge at 1000 rpm for 1 minute, and add 5 μL/well 4×PD-1 solutions, centrifuge at 1000 rpm for 1 minute, and incubate at 25° C. for 15 minutes. The concentrations of the compounds were 300, 100, 33.33, 11.11, 3.70, 1.23, 0.41, 0.137, 0.046, 0.015, 0 nM, respectively. Add 10 μL/well 2× Anti-6×His AlphaLISA Acceptor beads and Streptavidin Donor beads solution (PerkinElmer-AL356F) to the above 384 reaction plate, centrifuge at 1000 rpm for 1 minute, and incubate at 25° C. in the dark for 120 minutes. Read the AlphaLISA signal value using the Envision Reader. IC50 determination was performed by fitting the curve of percent control activity versus the log of the inhibitor concentration using the GraphPad Prism 8.0 software.

PD-1/PD-L1, sequence (Q9NZQ7 19-238): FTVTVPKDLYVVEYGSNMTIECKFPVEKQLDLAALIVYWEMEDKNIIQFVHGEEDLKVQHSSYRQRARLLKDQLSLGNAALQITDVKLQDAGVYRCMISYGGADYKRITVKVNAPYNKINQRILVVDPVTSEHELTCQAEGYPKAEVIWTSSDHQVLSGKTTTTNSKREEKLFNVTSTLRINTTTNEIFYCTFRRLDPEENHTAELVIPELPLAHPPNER

IC50 [nM]	Structure (SMILES)
6.3	Cc1c(-c2nc3cc(CN4CC5(C4)CS(=O)(=O)C5)c(OC(F)F)cc3o2)cccc1-c1cccc(-c2nc3cc(CN4CCC[C@H]4C(=O)O)c(OC(F)F)cc3o2)c1C [Example 54, ((6-(difluoromethoxy)-2-(3′-(6-(difluoromethoxy)-5-((2,2-dioxido-2-thia-6-azaspiro [3.3]heptan-6-yl)methyl)benzo[d]oxazol-2-yl)-2,2′-dimethyl-[1,1′-biphenyl]-3-yl)benzo[d]oxazol-5-yl)methyl)-L-proline]
0.57	Cc1c(-c2nc3cc(CN4CC5COCC5C4)c(OC(F)F)cc3o2)cccc1-c1cccc(-c2nc3cc(CN4CCC[C@H]4C(=O)O)c(OC(F)F)cc3o2)c1C (stereo partly drawn) [Example 55, ((6-(difluoromethoxy)-2-(3′-(6-(difluoromethoxy)-5-((tetrahydro-1H-furo[3,4-c]pyrrol-5(3H)-yl)methyl)benzo[d]oxazol-2-yl)-2,2′-dimethyl-[1,1′-biphenyl]-3-yl)benzo[d]oxazol-5-yl)methyl)-L-proline]
0.79	Cc1c(-c2nc3cc(CNCCCNCCO)c(OC(F)F)cc3o2)cccc1-c1cccc(-c2nc3cc(CN4CCC[C@H]4C(=O)O)c(OC(F)F)cc3o2)c1C [Example 58, ((6-(difluoromethoxy)-2-(3′-(6-(difluoromethoxy)-5-(((3-((2-hydroxyethyl)amino)propyl)amino)methyl)benzo[d]oxazol-2-yl)-2,2′-dimethyl-[1,1′-biphenyl]-3-yl)benzo[d]oxazol-5-yl)methyl)-L-proline]
2.5	Cc1c(-c2nc3cc(CN(C)CCN(C)C)c(OC(F)F)cc3o2)cccc1-c1cccc(-c2nc3cc(CN4CCC[C@H]4C(=O)O)c(OC(F)F)cc3o2)c1C [Example 59, ((6-(difluoromethoxy)-2-(3′-(6-(difluoromethoxy)-5-(((2-(dimethylamino)ethyl)(methyl)amino)methyl)benzo [d]oxazol-2-yl)-2,2′-dimethyl-[1,1′-biphenyl]-3-yl)benzo[d]oxazol-5-yl)methyl)-L-proline]
2.4	CCN(CC)C1CN(Cc2cc3nc(-c4cccc(-c5cccc(-c6nc7cc(CN8CCC[C@H]8C(=O)O)c(OC(F)F)cc7o6)c5C)c4C)oc3cc2OC(F)F)C1 [Example 68, ((2-(3′-(5-((3-(diethylamino)azetidin-1-yl)methyl)-6-(difluoromethoxy)benzo[d]oxazol-2-yl)-2,2′-dimethyl-[1,1′-biphenyl]-3-yl)-6-(difluoromethoxy)benzo[d]oxazol-5-yl)methyl)-L-proline]
0.49	Cc1c(-c2nc3cc(CN4CC(C(C)(C)O)C4)c(OC(F)F)cc3o2)cccc1-c1cccc(-c2nc3cc(CN4CCC[C@H]4C(=O)O)c(OC(F)F)cc3o2)c1C [Example 69, ((6-(difluoromethoxy)-2-(3′-(6-(difluoromethoxy)-5-((3-(2-hydroxypropan-2-yl)azetidin-1-yl)methyl)benzo[d]oxazol-2-yl)-2,2′-dimethyl-[1,1′-biphenyl]-3-yl)benzo[d]oxazol-5-yl)methyl)-L-proline]
0.37	Cc1c(-c2nc3cc(CN4CC5CC4C5)c(OC(F)F)cc3o2)cccc1-c1cccc(-c2nc3cc(CN4CCC[C@H]4C(=O)O)c(OC(F)F)cc3o2)c1C [Example 71, ((2-(3′-(5-((2-azabicyclo[2.1.1]hexan-2-yl)methyl)-6-(difluoromethoxy)benzo[d]oxazol-2-yl)-2,2′-dimethyl-[1,1′-biphenyl]-3-yl)-6-(difluoromethoxy)benzo[d]oxazol-5-yl)methyl)-L-proline]
0.42	Cc1c(-c2nc3cc(CNCC4(CO)CC(F)(F)C4)c(OC(F)F)cc3o2)cccc1-c1cccc(-c2nc3cc(CN4CCC[C@H]4C(=O)O)c(OC(F)F)cc3o2)c1C [Example 73, ((2-(3′-(5-((((3,3-difluoro-1-(hydroxymethyl)cyclobutyl)methyl)amino)methyl)-6-(difluoromethoxy)benzo[d]oxazol-2-yl)-2,2′-dimethyl-[1,1′-biphenyl]-3-yl)-6-(difluoromethoxy)benzo[d]oxazol-5-yl)methyl)-L-proline]
10	Cc1c(-c2nc3cc(CN4CC5CC(=O)CC4C5)c(OC(F)F)cc3o2)cccc1-c1cccc(-c2nc3cc(CN4CCC[C@H]4C(=O)O)c(OC(F)F)cc3o2)c1C (stereo partly drawn) [Example 75, ((6-(difluoromethoxy)-2-(3′-(6-(difluoromethoxy)-5-((3-oxo-6-azabicyclo [3.2.1]octan-6-yl)methyl)benzo[d]oxazol-2-yl)-2,2′-dimethyl-[1,1′-biphenyl]-3-yl)benzo[d]oxazol-5-yl)methyl)-L-proline]
32	Cc1c(-c2nc3cc(CN4CC5(C4)CC5(F)F)c(OC(F)F)cc3o2)cccc1-c1cccc(-c2nc3cc(CN4CCC[C@H]4C(=O)O)c(OC(F)F)cc3o2)c1C [Example 76, ((2-(3′-(5-((1,1-difluoro-5-azaspiro[2.3]hexan-5-yl)methyl)-6-(difluoromethoxy)benzo[d]oxazol-2-yl)-2,2′-dimethyl-[1,1′-biphenyl]-3-yl)-6-(difluoromethoxy)benzo[d]oxazol-5-yl)methyl)-L-proline]
1.2	Cc1c(-c2nc3cc(CN4CCC(C)(CO)C4)c(OC(F)F)cc3o2)cccc1-c1cccc(-c2nc3cc(CN4CCC[C@H]4C(=O)O)c(OC(F)F)cc3o2)c1C (stereo partly drawn) [Example 77, ((6-(difluoromethoxy)-2-(3′-(6-(difluoromethoxy)-5-((3-(hydroxymethyl)-3-methylpyrrolidin-1-yl)methyl)benzo[d]oxazol-2-yl)-2,2′-dimethyl-[1,1′-biphenyl]-3-yl)benzo[d]oxazol-5-yl)methyl)-L-proline]

Same assay, conditions: range symbols

IC50 [nM]	Structure (SMILES)
0.1 to 5	Cc1c(-c2nc3cc(CN4CCC4C)c(OC(F)F)cc3o2)cccc1-c1cccc(-c2nc3cc(CN4CCC[C@H]4C(=O)O)c(OC(F)F)cc3o2)c1C (stereo partly drawn) [Example 60, ((6-(difluoromethoxy)-2-(3′-(6-(difluoromethoxy)-5-((2-methylazetidin-1-yl)methyl)benzo[d]oxazol-2-yl)-2,2′-dimethyl-[1,1′-biphenyl]-3-yl)benzo[d]oxazol-5-yl)methyl)-L-proline]
0.1 to 5	Cc1c(-c2nc3cc(CN4CC(C)(CO)C4)c(OC(F)F)cc3o2)cccc1-c1cccc(-c2nc3cc(CN4CCC[C@H]4C(=O)O)c(OC(F)F)cc3o2)c1C [Example 78, ((6-(difluoromethoxy)-2-(3′-(6-(difluoromethoxy)-5-((3-(hydroxymethyl)-3-methylazetidin-1-yl)methyl)benzo[d]oxazol-2-yl)-2,2′-dimethyl-[1,1′-biphenyl]-3-yl)benzo[d]oxazol-5-yl)methyl)-L-proline]
0.1 to 5	Cc1c(-c2nc3cc(CN4CC(C)(C#N)C4)c(OC(F)F)cc3o2)cccc1-c1cccc(-c2nc3cc(CN4CCC[C@H]4C(=O)O)c(OC(F)F)cc3o2)c1C [Example 79, ((2-(3′-(5-((3-cyano-3-methylazetidin-1-yl)methyl)-6-(difluoromethoxy)benzo[d]oxazol-2-yl)-2,2′-dimethyl-[1,1′-biphenyl]-3-yl)-6-(difluoromethoxy)benzo[d]oxazol-5-yl)methyl)-L-proline]
0.1 to 5	Cc1c(-c2nc3cc(CN4CC(=CC#N)C4)c(OC(F)F)cc3o2)cccc1-c1cccc(-c2nc3cc(CN4CCC[C@H]4C(=O)O)c(OC(F)F)cc3o2)c1C [Example 82, ((2-(3′-(5-((3-(cyanomethylene)azetidin-1-yl)methyl)-6-(difluoromethoxy)benzo[d]oxazol-2-yl)-2,2′-dimethyl-[1,1′-biphenyl]-3-yl)-6-(difluoromethoxy)benzo[d]oxazol-5-yl)methyl)-L-proline]
